From patent publication US9453006B2, “Crystalline form having specific crystal habit and pharmaceutical composition containing this crystalline form as active ingredient” (POLA PHARMA INC., priority 2013, dated 2016) come the findings set out here.

Experiment [1] has as its system Trichomonas. Nature of the experiment: Anti-Trichomonas effect, number of survived protozoa after 72 hours culture at 37° C. (Example 4). It counts as cell-based. The settings on record: for Number of survived protozoa: cultured 72 hours at 37° C. The method, then:
Each of Crystal 1 and Crystal 2 was correctly weighed in an amount of 3.45 mg, which was dissolved in 10 mL of ethanol, in the same manner as in Example 3. After confirming the absence of the crystal by visual observation, 100 μL of the solution was used as an aliquot, and 900 μL of physiological saline was added thereto. The resultant solution was subjected to the sterilizing filtration by using a filter having a pore size of […] a sample or specimen. 0.5 mL of each of the specimens was added to “Trichomonas medium F” (produced by Fuji Pharma Co., Ltd.). Further, 100 μL of Trichomonas culture, which had been precultured and prepared to give 2.7×10^5 individuals/mL by adding the medium, was added, followed by being cultured for 72 hours at 37° C. (final concentration: 2.4 μg/mL). After completing the cultivation, the number of survived individuals of Trichomonas was counted by using a hemocytometer.

For experiment [2], the system named is Trichomonas vaginalis (clinically isolated strain). As to the kind of experiment: Effect on Trichomonas vaginalis, number of survived individuals after 96 hours culture (Example 3). Conditions: for Number of survived individuals of Trichomonas: after 0.22 μm sterilizing filtration, cultured 96 hours. It counts as cell-based. The text has this: The effect on Trichomonas vaginalis (clinically isolated strain) of the crystal was investigated while being compared with a crystal having such a crystal habit that the (11-1) plane was the specific crystal growth plane. A solution of 10% ethanol/physiological saline was used as a control.
Crystal of Comparative Example described above was used as the crystal which had such a crystal habit that the (11-1) plane was the specific crystal growth plane. Crystal 2 was used as the crystal which had such a crystal habit that the (011) plane was the specific crystal growth plane.
Each of the crystals of luliconazole was weighed in an amount of 7.02 mg to which 10 mL of ethanol was added to dissolve the crystal. After confirming the absence of the crystal by visual observation, 100 μL of the solution was used as an aliquot, and 900 μL of physiological saline was added thereto. The resultant solution was subjected to the sterilizing filtration by using a filter having a pore size of 0.22 μm to provide a sample of 5.02 μg/mL (final concentration). 250 μL of an aliquot was taken therefrom, to which 250 μL of 10% ethanol/physiological saline was added to provide a sample of 2.51 μg/mL (final concentration).
0.5 mL of each of the samples was added to “Trichomonas medium F” (produced by Fuji Pharma Co., Ltd.), and 100 μL of Trichomonas culture (5×10^3 individuals of Trichomonas) was added thereto, followed by being cultured for 96 hours. After performing cooling for 10 minutes in ice water, the medium was stirred, which was spread on a hemocytometer to count a number of survived individuals of Trichomonas. As for a control, 0.5 mL of 10% ethanol/physiological saline was added in place of the sample. […] Further, according to the fact that the peak area ratio of the (011) plane was 26%, it is possible to estimate and acknowledge that the effect as described above is provided if I(011) with respect to the sum total of I(001), I(100), I(10-1), I(011), I(110), I(11-1), I(10-2), I(11-2), I(020), I(021), I(20-2), I(121), I(013), I(11-3), and I(221) is not less than 25%, provided that integrated intensities of diffraction peaks, which correspond to the (001), (100), (10-1), (011), (110), (11-1), (10-2), (11-2), (020), (021), (20-2), (121), (013), (11-3), and (221) planes, are designated as I(001), I(100), I(10-1), I(011), I(110), I(11-1), I(10-2), I(11-2), I(020), I(021), I(20-2), I(121), I(013), I(11-3), and I(221) respectively in relation to the diffraction peaks detected in a range of 2θ=5 to 35° in a powder X-ray diffraction pattern in which CuKα is used as an X-ray source.

[3] abbreviates: sample 2.51 μg/mL (final concentration).
Where [4] appears, read: sample 5.02 μg/mL (final concentration).

For the molecule `N#C/C(=C1/SC[C@@H](c2ccc(Cl)cc2Cl)S1)n1ccnc1` [Crystal 1, luliconazole], the anti-Trichomonas effect entry in experiment [1] (Crystal 1 compared with Crystal 2) is “more excellent than that of Crystal 2”. The “Number of survived protozoa” value in experiment [1] (final concentration 2.4 μg/mL) is listed as 5.57 ± 0.42 100000 individuals/mL; in experiment [1] (final concentration 4.8 μg/mL) it was 0 100000 individuals/mL; in experiment [1] (final concentration 9.6 μg/mL), 0 100000 individuals/mL.

In the case of `N#C/C(=C1/SC[C@@H](c2ccc(Cl)cc2Cl)S1)n1ccnc1` [Crystal 2, luliconazole], in experiment [2] (compared with the crystal having the (11-1) plane as specific crystal growth plane), the “suppression of the growth of Trichomonas in the vicinity of MIC” value is “significantly excellent”. Also, the “Number of survived individuals of Trichomonas” value in experiment [2] (setting [3]) and in experiment [2] (setting [4]) was 23333 ± 5773 individuals/mL in each case. Also, the “Number of survived protozoa” value is given as 6.57 ± 0.60 100000 individuals/mL in experiment [1] (final concentration 2.4 μg/mL), 0 100000 individuals/mL in experiment [1] (final concentration 4.8 μg/mL) and 0 100000 individuals/mL in experiment [1] (final concentration 9.6 μg/mL).

Take `N#C/C(=C1/SC[C@@H](c2ccc(Cl)cc2Cl)S1)n1ccnc1` [Crystal of Comp. Ex., luliconazole, reference compound]: the “Number of survived individuals of Trichomonas” value came out at 116667 ± 15275 individuals/mL in experiment [2] (setting [3]) and 23333 ± 5773 individuals/mL in experiment [2] (setting [4]).
